Experimental data published in patent publication US12247004B2, “2-amino-N-(amino-oxo-aryl-lambda6-sulfanylidene)acetamide compounds and their therapeutic use” (Oxford Drug Design Limited, priority 2019, dated 2025).
Values after ≈ are worked out from the molar mass of the structure shown. Counter-ions that a name gives are not always drawn. Like-named read-outs stand apart in the source and are kept apart here.

Tests used:
[1] = biological target: Leucyl-tRNA synthetase (LeuRS) (Escherichia coli (strain K12), UniProt P07813); assay: Leucyl-tRNA synthetase enzyme inhibition (AMP-Glo; single point % inhibition at 100 μM and IC50); assay type: biochemical
Chain of Leucyl-tRNA synthetase (LeuRS) (P07813 whole entry, looked up): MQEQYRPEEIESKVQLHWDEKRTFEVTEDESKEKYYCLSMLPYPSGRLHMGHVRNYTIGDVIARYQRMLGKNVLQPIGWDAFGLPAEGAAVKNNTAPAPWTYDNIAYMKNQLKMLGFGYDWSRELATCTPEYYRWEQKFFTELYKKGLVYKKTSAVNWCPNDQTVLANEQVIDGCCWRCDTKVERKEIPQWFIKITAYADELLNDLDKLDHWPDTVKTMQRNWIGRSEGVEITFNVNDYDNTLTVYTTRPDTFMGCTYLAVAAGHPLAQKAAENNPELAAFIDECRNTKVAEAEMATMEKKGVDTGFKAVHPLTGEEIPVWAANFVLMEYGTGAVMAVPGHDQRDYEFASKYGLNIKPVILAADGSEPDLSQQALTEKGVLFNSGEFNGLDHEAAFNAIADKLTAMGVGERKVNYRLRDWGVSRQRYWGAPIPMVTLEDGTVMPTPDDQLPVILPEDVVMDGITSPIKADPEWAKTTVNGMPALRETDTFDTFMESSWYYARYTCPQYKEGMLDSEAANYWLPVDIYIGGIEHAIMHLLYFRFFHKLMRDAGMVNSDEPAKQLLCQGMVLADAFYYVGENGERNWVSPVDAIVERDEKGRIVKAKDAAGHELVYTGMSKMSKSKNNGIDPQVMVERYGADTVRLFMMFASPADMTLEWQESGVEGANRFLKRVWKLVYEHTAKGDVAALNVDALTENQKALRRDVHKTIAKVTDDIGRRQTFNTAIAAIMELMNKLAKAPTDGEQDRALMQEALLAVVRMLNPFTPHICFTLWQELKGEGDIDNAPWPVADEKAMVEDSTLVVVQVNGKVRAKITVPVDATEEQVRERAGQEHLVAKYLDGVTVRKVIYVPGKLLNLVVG
Excerpt: Study 1—Enzyme Inhibition
The aminoacylation reaction catalyzed by aminoacyl-tRNA synthetases (aaRS) takes place in two steps. In the first step, aaRS activates its cognate amino acid with ATP; and in the second step the activated amino acid is loaded to its corresponding tRNA. This reaction can be summarized as follows: aaRS+aa+ATP=aaRS-aa-AMP+PPi aaRS-aa-AMP+tRNA=aa-tRNA+AMP+aaRS
wherein: aaRS, aminoacyl-tRNA synthetase; aa, amino acid; aaRS-aa-AMP, enzyme-bound to aminoacyl-adenylate; AMP, adenosine monophosphate; aa-tRNA, aminoacyl-tRNA, PPi, inorganic pyrophosphate.
a. Single Point Percentage Inhibition
The activity of the pathogenic aaRSs was monitored by measuring AMP production using the commercial kit AMP-Glo (Promega, Madison, USA).
Ligand stock solutions were prepared in 100% DMSO at 10 mM concentration. An assay buffer consisting of 100 mM Tris HCl pH 7.6, 40 mM MgCl, 20 mM KCl and 150 mM NaCl was prepared in dH2O.
Using the same enzymatic assay in a 384-well plate format, ten point concentration response curves were generated for each compound using a top concentration of 10 μM. The known inhibitor LeuAMS was used as a positive control for the LeuRS assay. 100% DMSO was used as a negative control. The IC50 was calculated based on non-linear regression analysis.

[2] = system: bacteria (ATCC reference strains); assay: Antibacterial activity, MIC by broth micro-dilution (CLSI); details: Escherichia coli
[3] = E. coli LeuRS, read-out: Enzyme Inhibition - IC50, E. coli LeuRS

| Compound | IC50 [1, 3] [nM] | IC50 [1] [nM] | also measured |
| --- | --- | --- | --- |
| C=CCc1cccc(S(N)(=O)=NC(=O)[C@@H](N)CC(C)C)c1 (stereo partly drawn) [ANASIA-085, (2S)—N-((3-allylphenyl)(amino)(oxo)-λ6-sulfanylidene)-2-amino-4-methylpentanamide hydrochloride] | 594 | – | – |
| Cc1ncc([S@](N)(=O)=NC(=O)[C@@H](N)CC(C)C)s1 [ANASIA-137-2] | 8890 | – | – |
| CC(C)C[C@H](N)C(=O)N=S(N)(=O)c1cscc1C(N)=O (stereo partly drawn) [ANASIA-097, 4-(N′-(L-leucyl)sulfamidimidoyl)thiophene-3-carboxamide 2,2,2-trifluoroacetate] | 2160 | – | – |
| COc1cccc(S(N)(=O)=NC(=O)[C@@H](N)CC(C)C)c1 (stereo partly drawn) [ANASIA-102, (2S)-2-amino-N-(amino(3-methoxyphenyl)(oxo)-16-sulfaneylidene)-4-methylpentanamide] | 385 | – | MIC ([2]; ATCC25922, read-out: Antibacterial Activity (MIC), A = E. coli ATCC 25922): 16 µg/mL (≈ 53.4 µM); MIC ([2]; BAA2469, read-out: Antibacterial Activity (MIC), G = E. coli BAA-2469): > 64 µg/mL |
| CC(C)C[C@H](N)C(=O)N=[S@@](N)(=O)c1csc(Cl)c1Cl [ANASIA-125-2] | 1930 | – | – |
| CC(C)C[C@H](N)C(=O)N=[S@@](N)(=O)c1nc(C(F)F)cs1 [ANASIA-127-2] | – | 192 | – |
| CC(C)C[C@H](N)C(=O)N=[S@@](N)(=O)c1cc(Cl)c(Cl)s1 [ANASIA-121-2] | 1100 | – | – |
| CC(C)C[C@H](N)C(=O)N=[S@@](N)(=O)c1scc(Br)c1Br [ANASIA-107-2] | 1290 | – | – |
| CC(C)C[C@H](N)C(=O)N=S(N)(=O)c1ccncc1 (stereo partly drawn) [ANASIA-059-1, (2S)-2-amino-N-(amino(oxo)(pyridin-4-yl)-λ^6-sulfanylidene)-4-methylpentanamide] | – | – | inhibition at 10 µM ([1]; read-out: Enzyme inhibition, E. coli LeuRS, % at 10 μM): 46% |
| CC(C)C[C@H](N)C(=O)N=[S@@](N)(=O)c1cccc(Br)c1 [ANASIA-044-2] | 2160 | – | – |
| CC(C)C[C@H](N)C(=O)N=[S@@](N)(=O)c1cccc(OC(F)F)c1 [ANASIA-088-2] | 1560 | – | – |
| CC(C)C[C@H](N)C(=O)N=[S@@](N)(=O)c1ccsc1Cl [ANASIA-092-2] | 1970 | – | – |
| CC(C)C[C@H](N)C(=O)N=S(N)(=O)c1ccn(C)n1 (stereo partly drawn) [ANASIA-073] | – | 238 | – |
| CC(C)C[C@H](N)C(=O)N=[S@@](N)(=O)c1ccccn1 [ANASIA-075-2] | 2540 | – | – |
| CC(C)C[C@H](N)C(=O)N=S(N)(=O)c1cc(C#N)ccc1F (stereo partly drawn) [ANASIA-065] | 670 | – | – |
| CC(C)C[C@H](N)C(=O)N=[S@@](N)(=O)c1sc(Cl)cc1Cl [ANASIA-120-2] | 7600 | – | – |
| CC(C)C[C@H](N)C(=O)N=S(N)(=O)c1cc2sccc2s1 (stereo partly drawn) [ANASIA-082] | 449 | – | – |
| Cc1nc([S@](N)(=O)=NC(=O)[C@@H](N)CC(C)C)sc1C [ANASIA-128-2] | 3440 | – | – |
| CC(C)C[C@H](N)C(=O)N=S(N)(=O)c1cscc1C#N (stereo partly drawn) [ANASIA-096] | 700 | – | – |
| Cc1csc([S@](N)(=O)=NC(=O)[C@@H](N)CC(C)C)c1 [ANASIA-095-2] | 1890 | – | – |
| Cc1sccc1[S@](N)(=O)=NC(=O)[C@@H](N)CC(C)C [ANASIA-091-2] | 8150 | – | – |

| Compound | IC50 [1, 3] [nM] | IC50 [1] [nM] | also measured |
| --- | --- | --- | --- |
| CC(C)C[C@H](N)C(=O)N=[S@@](N)(=O)c1cc(F)cs1 [ANASIA-062-2] | 715 | – | – |
| CCc1ccsc1[S@](N)(=O)=NC(=O)[C@@H](N)CC(C)C [ANASIA-119-2] | 4650 | – | – |
| CC(C)C[C@H](N)C(=O)N=[S@](N)(=O)c1nsc2ccccc12 [ANASIA-132-1] | – | 4140 | – |
| CC(C)C[C@H](N)C(=O)N=[S@](N)(=O)c1cc(-c2ccccc2)cs1 [ANASIA-067-1] | – | 1920 | – |
| CC(C)C[C@H](N)C(=O)N=[S@](N)(=O)c1cscc1-c1ccccc1 [ANASIA-130-1] | – | 324 | – |
| Cc1c([S@](N)(=O)=NC(=O)[C@@H](N)CC(C)C)csc1Cl [ANASIA-122-2] | 1930 | – | – |
| COc1ccsc1[S@](N)(=O)=NC(=O)[C@@H](N)CC(C)C [ANASIA-108-2] | 4310 | – | – |
| CC(C)C[C@H](N)C(=O)N=[S@@](N)(=O)c1cc(Cl)cs1 [ANASIA-124-2] | 4800 | – | – |
| CC(C)C[C@H](N)C(=O)N=[S@](N)(=O)c1cc(Cl)sc1Cl [ANASIA-134-1] | – | 5150 | – |
| CN[S@@](=O)(=NC(=O)[C@@H](N)CC(C)C)c1ccccc1 [ANASIA-010-1, (S)-2-amino-4-methyl-N—((S)-(methylamino)(oxo)(phenyl)-λ6-sulfanylidene)pentanamide] | – | 9150 | – |
| CC(C)C[C@H](N)C(=O)N=S(N)(=O)c1ccsc1C(N)=O (stereo partly drawn) [ANASIA-093, 3-(N′-(L-leucyl)sulfamidimidoyl)thiophene-2-carboxamide hydrochloride] | 1330 | – | – |
| CC(C)C[C@H](N)C(=O)N=[S@@](N)(=O)c1ccsc1C(F)F [ANASIA-126-2] | 1720 | – | – |
| CC(C)C[C@H](N)C(=O)N=[S@@](N)(=O)c1cccc(C(C)(C)C)c1 [ANASIA-049-2] | 2630 | – | – |
| CC(C)C[C@H](N)C(=O)N=[S@@](N)(=O)c1cccc(Oc2ccccc2)c1 [ANASIA-114-2] | 982 | – | – |
| CC(C)C[C@H](N)C(=O)N=S(N)(=O)c1sc(Cl)nc1Cl (stereo partly drawn) [ANASIA-076] | 2260 | – | – |
| C=Cc1ccsc1S(N)(=O)=NC(=O)[C@@H](N)CC(C)C (stereo partly drawn) [ANASIA-106, (2S)-2-amino-N-(amino(oxo)(3-vinylthiophen-2-yl)-λ6-sulfanylidene)-4-methylpentanamide hydrochloride] | 897 | – | – |
| CC(C)C[C@H](N)C(=O)N=[S@](N)(=O)c1csc(C#N)c1 [ANASIA-135-1] | – | 5070 | – |
| N[C@@H](CC1CC1)C(=O)N=[S@](N)(=O)c1ccccc1 [ANASIA-050-1] | – | 4330 | – |
| Cc1nc([S@@](N)(=O)=NC(=O)[C@@H](N)CC(C)C)sc1C [ANASIA-128-1] | – | 2610 | – |
| Cc1csc([S@](N)(=O)=NC(=O)[C@@H](N)CC(C)C)c1C [ANASIA-104-2] | 3250 | – | – |
| CC(C)C[C@H](N)C(=O)N=[S@@](N)(=O)c1scc(Cl)c1Cl [ANASIA-081-2] | 488 | – | – |

| Compound | IC50 [1, 3] [nM] | IC50 [1] [nM] | also measured |
| --- | --- | --- | --- |
| CC(C)C[C@H](N)C(=O)N=[S@@](N)(=O)c1cc(C#N)cs1 [ANASIA-136-2] | 1410 | – | – |
| CC(C)C[C@H](N)C(=O)N=[S@@](N)(=O)c1csc(Cl)c1 [ANASIA-099-2] | 511 | – | – |
| CC(C)C[C@H](N)C(=O)N=S(N)(=O)c1ccc2c(c1)CCO2 (stereo partly drawn) [ANASIA-048] | 6530 | – | – |
| CC(C)C[C@H](N)C(=O)N=[S@@](N)(=O)c1cccc(C(F)(F)F)c1 [ANASIA-089-2] | – | 2390 | – |
| CC(C)C[C@H](N)C(=O)N=S(N)(=O)c1nc(Cl)cs1 (mixture of isomers) [ANASIA-045] | – | 5520 | – |
| Cc1cc([S@](N)(=O)=NC(=O)[C@@H](N)CC(C)C)cs1 [ANASIA-098-2] | 5140 | – | – |
| Cc1ccccc1[S@@](N)(=O)=NC(=O)[C@@H](N)CC(C)C [ANASIA-086-1] | – | 3330 | – |
| CC(C)C[C@H](N)C(=O)N=[S@](N)(=O)c1cccc(Oc2ccccc2)c1 [ANASIA-114-1] | – | 61.8 | – |
| CCc1csc([S@](N)(=O)=NC(=O)[C@@H](N)CC(C)C)c1 [ANASIA-133-2, (S)-2-amino-N—((R)-amino(4-ethylthiophen-2-yl)(oxo)-λ6-sulfanylidene)-4-methylpentanamide] | – | 6370 | – |
| CC(C)C[C@H](N)C(=O)N=[S@@](N)(=O)c1cscc1-c1ccccc1 [ANASIA-130-2] | 3700 | – | – |
| CC(C)C[C@H](N)C(=O)N=[S@@](N)(=O)c1csc2ccsc12 [ANASIA-100-2] | 945 | – | – |
| CC(C)C[C@H](N)C(=O)N=[S@](N)(=O)c1nc(C(F)F)cs1 [ANASIA-127-1] | – | 6890 | – |
| CC(C)C[C@H](N)C(=O)N=[S@](N)(=O)c1ccccc1F [ANASIA-087-2] | 4920 | – | – |
| Cc1ncc([S@@](N)(=O)=NC(=O)[C@@H](N)CC(C)C)s1 [ANASIA-137-1] | – | 2670 | – |
| CC(C)C[C@H](N)C(=O)N=[S@@](N)(=O)c1csc2ccccc12 [ANASIA-083-2] | 2300 | – | – |
| CC(C)C[C@H](N)C(=O)N=[S@](N)(=O)c1ccc(C(C)C)s1 [ANASIA-111-1] | – | 779 | – |
| CC(C)C[C@H](N)C(=O)N=[S@](N)(=O)c1sccc1C(C)C [ANASIA-110-1] | – | 425 | – |
| CC(C)C[C@H](N)C(=O)N=[S@@](N)(=O)c1sccc1C(C)C [ANASIA-110-2] | 6240 | – | – |
| CC(C)C[C@H](N)C(=O)N=S(N)(=O)c1cccc(OC(F)(F)F)c1 (stereo partly drawn) [ANASIA-090] | 199 | – | – |
